Paper PMC8876231, “Analogues of Natural Chalcones as Efficient Inhibitors of AKR1C3” (Metabolites, 2022)
Where “and” joins values, the source holds several entries; their conditions need not be identical. Equal entries are not always repeated.

How the values were obtained:
Assay type in all cases: biochemical
Settings in all cases: 10 µM compound; mean ± SD
[1] = target: T1, HSD17B3 (Homo sapiens, UniProt P37058); experiment: HSD17B3 inhibition assay (∆4-androstene-3,17-dione to testosterone, HEK293 stably expressing HSD17B3)
T1 construct: expressed in transfected cells
T1 sequence (P37058 1-310): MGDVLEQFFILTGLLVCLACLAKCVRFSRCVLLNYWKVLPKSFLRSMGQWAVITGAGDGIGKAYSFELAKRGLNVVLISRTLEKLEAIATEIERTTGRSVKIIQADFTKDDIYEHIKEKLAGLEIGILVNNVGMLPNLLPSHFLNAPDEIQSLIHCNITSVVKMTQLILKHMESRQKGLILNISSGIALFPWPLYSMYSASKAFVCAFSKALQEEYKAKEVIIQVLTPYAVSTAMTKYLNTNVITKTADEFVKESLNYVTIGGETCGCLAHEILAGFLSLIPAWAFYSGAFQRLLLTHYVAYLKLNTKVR
Source text: (§1) For enzymatic assays and inhibitor testing, all enzymes were cloned into bacterial or mammalian expression vectors. AKR1C3 and the human hydroxysteroid dehydrogenases HSD17B1, HSD17B2, HSD17B4 (SDR domain), HSD17B7, and HSD17B10 were cloned into a pGEX vector as described in [71, 72]. The coding sequences for AKR1C1, AKR1C2, and AKR1C4 were cloned by Gateway technology into the pcDNA3-N-MycDest vector according to the manufacturer’s instructions (Life Technologies, Carlsbad, CA, USA). The p11 plasmid coding for HSD17B14 (S205 variant) was a gift from Udo Opperman SGC Oxford, UK. For assays with HSD17B3, HEK293 cells stably expressing HSD17B3 were used. Enzymes were expressed in E. coli BL21 DE3 or E. coli BL21 DE3 Codon Plus RP (Stratagene, San Diego, CA, USA) or in HEK293 cells as described in [71, 72, 73]. Bacterial and cell pellets were stored at −20 °C and −80 °C, respectively, until use.
(§2) Inhibition assays were carried out as described in [71, 74]. […] For a detailed assay setup, see Supplementary Table S6. The incubation at 37 °C was stopped with 0.21 M ascorbic acid in methanol:acetic acid 99:1 (v:v) after the time needed to convert approximately 30% of the substrate in a control assay with 1% DMSO, without inhibitor candidate. Substrates and products were extracted from the reaction mixture by solid-phase extraction using C18 cartridges (Phenomenex, Aschaffenburg, Germany) and separated by RP–HPLC in a Beckman–Coulter HPLC Gold system, using the Luna 5 µm C18(2), 125 × 4.0 mm column (Phenomenex). The mobile phases used were H2O:ACN (57:43 (v:v); for assays of estrone (E1) to oestradiol (E2), E2 to E1, and ∆4-androstene-3,17-dione to testosterone conversion), H2O:ACN (49:51 (v:v); for assays of progesterone to 20α-hydroxyprogesterone conversion), and H2O:MeOH (35:65 (v:v) for assays of dihydrotestosterone (DHT) to 3α-androstanediol conversion) at a flow rate of 1 mL/min. Radioactivity was detected by online scintillation counting by using a radioactivity monitor (LB506D, Berthold Technologies, Bad Wildbad, Germany). Conversion of substrates to products was determined by integration of the peak area of the substrate and product peaks in percent. For calculation of inhibition, the conversion of control assay (assay without inhibitor) was set to 0% inhibition. All assays were run in triplicates, and mean values ± SD are reported.
(§3) Table S6: Activity assay setup […]
(§4) E1: estrone; E2: 17β-estradiol, A: Δ4-androstene-3,17-dione; T: testosterone, P: progesterone, 20αOHP: 20α-hydroxyprogesterone, DHT: dihydrotestosterone, 3α-Adiol: 3α-androstanediol, NaPi: 100 mM Na-phosphate buffer; PI: C0mplete protease inhibitor (Roche);. E.coli - Expression in E.coli BL21 DE3 Codon Plus RP except E.coli BL21 DE3 […]
(§5) application to antiparasitic and natural product synthesis. Eur J Org Chem […]
(§6) Synthesis of Xanthohumol analogues and discovery of potent thioredoxin reductase inhibitor as potential anticancer agent. J Med Chem 2015, 58,

[2] = target: T2, HSD17B14 (Homo sapiens, UniProt Q9BPX1, T205S); experiment: HSD17B14 (S205 variant) inhibition assay (oestradiol to estrone)
T2 construct: His6 (own knowledge: the SGC p11 vector encodes an N-terminal His tag with TEV site); made in house; host or cells: E. coli BL21 DE3
T2 sequence (Q9BPX1 1-270 T205S): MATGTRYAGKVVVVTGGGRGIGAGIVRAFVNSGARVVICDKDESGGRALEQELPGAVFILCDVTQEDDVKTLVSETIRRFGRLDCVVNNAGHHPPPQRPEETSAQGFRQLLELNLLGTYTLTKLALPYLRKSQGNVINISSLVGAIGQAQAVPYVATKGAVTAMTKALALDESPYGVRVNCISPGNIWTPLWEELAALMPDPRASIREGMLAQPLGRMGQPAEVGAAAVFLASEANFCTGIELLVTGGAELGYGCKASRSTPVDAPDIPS
Source text: as §1, §2, §3, §4, §5, §6

[3] = target: T3, HSD17B4 (Homo sapiens, UniProt P51659); experiment: HSD17B4 (SDR domain) inhibition assay (oestradiol to estrone)
T3 construct: pGEX-HSD17B4 (SDR domain) in; GST (own knowledge: pGEX vectors encode N-terminal GST); made in house; host or cells: E. coli BL21 DE3 Codon Plus RP
T3 sequence (P51659 1-305 limits assumed): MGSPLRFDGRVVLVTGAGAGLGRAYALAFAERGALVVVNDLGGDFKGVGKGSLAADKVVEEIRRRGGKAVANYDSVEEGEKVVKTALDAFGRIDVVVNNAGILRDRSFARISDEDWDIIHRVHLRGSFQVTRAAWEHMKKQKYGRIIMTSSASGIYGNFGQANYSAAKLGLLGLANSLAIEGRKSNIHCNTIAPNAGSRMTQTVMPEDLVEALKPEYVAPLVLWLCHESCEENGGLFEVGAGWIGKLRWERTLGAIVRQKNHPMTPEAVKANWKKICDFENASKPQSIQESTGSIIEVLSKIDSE
Source text: as §1, §2, §3
pGEX-HSD17B4 (SDR domain) in E2 à E1 estradiol-[6,7-3H], 40 NAD 750 µM NaPi pH7.7 […]
as §4, §5, §6

[4] = target: T4, AKR1C4 (Homo sapiens, UniProt P17516); experiment: AKR1C4 inhibition assay (DHT to 3α-androstanediol)
T4 construct: Myc (N); expressed in transfected cells; host or cells: HEK293
T4 sequence (P17516 1-323): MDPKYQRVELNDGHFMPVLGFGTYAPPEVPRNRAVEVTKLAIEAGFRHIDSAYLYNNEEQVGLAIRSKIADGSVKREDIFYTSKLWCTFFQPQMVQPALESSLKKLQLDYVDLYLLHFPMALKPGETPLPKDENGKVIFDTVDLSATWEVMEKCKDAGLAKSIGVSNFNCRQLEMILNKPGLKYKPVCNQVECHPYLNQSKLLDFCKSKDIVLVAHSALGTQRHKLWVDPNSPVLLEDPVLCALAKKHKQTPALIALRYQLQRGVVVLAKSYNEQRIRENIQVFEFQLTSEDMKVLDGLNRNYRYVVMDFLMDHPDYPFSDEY
Source text: as §1, §2, §3, §4, §5, §6

Inhibition of HSD17B3 at 10 µM in % [1]	Inhibition of HSD17B14 at 10 µM in % [2]	Inhibition of HSD17B4 at 10 µM in % [3]	Inhibition of AKR1C4 at 10 µM in % [4]	inhibition at 10 µM [1]	inhibition at 10 µM [2]	inhibition at 10 µM [3]	inhibition at 10 µM [4]	SMILES
24.8 ± 4.8%	24.9 ± 8.1%	9.9 ± 6.1%	25.0 ± 1.5%	–	–	–	–	COc1ccc(/C=C/C(=O)c2c(O)cc(O)cc2OC)cc1 [Compound 18]
52.7 ± 6.7%	-8.0 ± 2.3%	3.0 ± 6.3%	91.6 ± 1.5% and > 75%	–	–	–	–	Cc1ccc(/C=C/C(=O)c2c(O)cc(O)cc2O)cc1 [Compound 21]
41.8 ± 3.3%	1.8 ± 7.7%	2.0 ± 2.9%	93.3 ± 0.7% and > 75%	–	–	–	–	COc1ccc(/C=C/C(=O)c2c(O)cc(O)cc2O)cc1 [Compound 19]

Second part, the compound before the results:

SMILES	Inhibition of HSD17B3 at 10 µM in % [1]	Inhibition of HSD17B14 at 10 µM in % [2]	Inhibition of HSD17B4 at 10 µM in % [3]	Inhibition of AKR1C4 at 10 µM in % [4]	inhibition at 10 µM [1]	inhibition at 10 µM [2]	inhibition at 10 µM [3]	inhibition at 10 µM [4]
O=C(/C=C/c1ccc(Cl)cc1Cl)c1c(O)cc(O)cc1O [Compound 23, 2,4-dichloro-2′,4′,6′-trihydroxychalcone]	–	–	–	–	68.6%	13.9 ± 2.7%	19.6 ± 1%	97 ± 0.9%
COc1cc(O)cc(O)c1C(=O)/C=C/c1ccc(Cl)cc1Cl [Compound 25]	20.9 ± 8.0%	-3.2 ± 6.3%	-6.0 ± 7.5%	41.6 ± 1.8%	–	–	–	–
Cc1cccc(/C=C/C(=O)c2c(O)cc(O)cc2O)c1 [Compound 20]	55.9 ± 4.1%	18.5 ± 9.3%	8.6 ± 1.1%	79.6 ± 0.2% and > 75%	–	–	–	–
